Assay results as given in the NIST ThermoML archive (doi:10.1016/j.jct.2011.02.018).
Numbers after ± are expanded uncertainties.

Test: xn = mol fraction of the nth substance listed
Settings: 101 kPa, Liquid, Vibrating tube method

COC(C)(C)C [2-methoxy-2-methylpropane] + CO
mass density [kg/m3]
Settings	293.15 K	298.15 K	303.15 K	308.15 K
x1 = 0.01	790.62 ± 0.23	785.93 ± 0.23	781.19 ± 0.23	776.42 ± 0.23
x1 = 0.0201	789.69 ± 0.23	785 ± 0.23	780.24 ± 0.23	775.46 ± 0.23
x1 = 0.0301	788.74 ± 0.23	784.01 ± 0.23	779.26 ± 0.23	774.46 ± 0.23
x1 = 0.0402	787.83 ± 0.23	783.09 ± 0.23	778.32 ± 0.23	773.51 ± 0.23
x1 = 0.0502	786.96 ± 0.23	782.24 ± 0.23	777.44 ± 0.23	772.61 ± 0.23
x1 = 0.0601	786.1 ± 0.23	781.36 ± 0.23	776.57 ± 0.23	771.73 ± 0.23
x1 = 0.0696	785.32 ± 0.23	780.58 ± 0.23	775.75 ± 0.23	770.9 ± 0.23
x1 = 0.0799	784.47 ± 0.23	779.71 ± 0.23	774.88 ± 0.23	770.02 ± 0.23
x1 = 0.0888	783.72 ± 0.23	778.95 ± 0.23	774.12 ± 0.23	769.25 ± 0.23
x1 = 0.1008	782.79 ± 0.23	778 ± 0.23	773.16 ± 0.23	768.27 ± 0.23
x1 = 0.1498	779.11 ± 0.23	774.25 ± 0.23	769.36 ± 0.23	764.43 ± 0.23
x1 = 0.1945	776.01 ± 0.23	771.13 ± 0.23	766.21 ± 0.23	761.24 ± 0.23
x1 = 0.26	771.99 ± 0.23	767.08 ± 0.23	762.1 ± 0.23	757.08 ± 0.24
x1 = 0.3006	769.58 ± 0.23	764.65 ± 0.23	759.64 ± 0.23	754.59 ± 0.24
x1 = 0.3482	766.92 ± 0.23	761.97 ± 0.23	756.93 ± 0.24	751.87 ± 0.24
x1 = 0.3841	765.07 ± 0.23	760.07 ± 0.23	755.01 ± 0.24	749.92 ± 0.24
x1 = 0.4527	761.67 ± 0.23	756.67 ± 0.24	751.59 ± 0.24	746.45 ± 0.24
x1 = 0.5004	759.46 ± 0.24	754.42 ± 0.24	749.29 ± 0.24	744.12 ± 0.24
x1 = 0.5458	757.52 ± 0.24	752.46 ± 0.24	747.32 ± 0.24	742.12 ± 0.24
x1 = 0.6009	755.29 ± 0.24	750.18 ± 0.24	745.03 ± 0.24	739.81 ± 0.24
x1 = 0.6459	753.48 ± 0.24	748.37 ± 0.24	743.18 ± 0.24	737.93 ± 0.24
x1 = 0.7014	751.36 ± 0.24	746.23 ± 0.24	741.01 ± 0.24	735.74 ± 0.24
x1 = 0.7449	749.75 ± 0.24	744.6 ± 0.24	739.36 ± 0.24	734.07 ± 0.24
x1 = 0.7986	747.76 ± 0.24	742.58 ± 0.24	737.33 ± 0.24	732.01 ± 0.24
x1 = 0.8504	745.92 ± 0.24	740.74 ± 0.24	735.47 ± 0.24	730.13 ± 0.24
x1 = 0.8978	744.27 ± 0.24	739.05 ± 0.24	733.78 ± 0.24	728.43 ± 0.24
x1 = 0.9091	743.88 ± 0.24	738.66 ± 0.24	733.39 ± 0.24	728.04 ± 0.24
x1 = 0.9184	743.53 ± 0.24	738.33 ± 0.24	733.04 ± 0.24	727.69 ± 0.24
x1 = 0.9259	743.26 ± 0.24	738.07 ± 0.24	732.78 ± 0.24	727.43 ± 0.24
x1 = 0.9379	742.81 ± 0.24	737.6 ± 0.24	732.32 ± 0.24	726.97 ± 0.24
x1 = 0.9473	742.48 ± 0.24	737.28 ± 0.24	732 ± 0.24	726.65 ± 0.24
x1 = 0.9598	742.06 ± 0.24	736.83 ± 0.24	731.56 ± 0.24	726.21 ± 0.24
x1 = 0.9706	741.68 ± 0.24	736.46 ± 0.24	731.17 ± 0.24	725.82 ± 0.24
x1 = 0.9791	741.36 ± 0.24	736.13 ± 0.24	730.85 ± 0.24	725.49 ± 0.24
x1 = 0.9881	741.04 ± 0.24	735.82 ± 0.24	730.53 ± 0.24	725.18 ± 0.24
